PMC6222672, “Pharmacokinetic and Metabolism Studies of 12-Riboside-Pseudoginsengenin DQ by UPLC-MS/MS and UPLC-QTOF-MS^E” (Molecules : A Journal of Synthetic Chemistry and Natural …, 2018)
Entries after “also recorded” stand apart in the source; their conditions may differ. Where two headings read alike, the source gives them in different places.

What was measured:
S180 cells = assay: MTT cell viability test, S180 cells; assay type: cell-based; settings: 1-200 μM, 44 h
Excerpt: (§1) Antitumor activity test of RPDQ in vitro by using S180, SPC-A-1 and A549 cells
(§2) Since the startmaterial for the semi-synthesis of 12-Riboside-pseudoginsengenin DQ (RPDQ) was pseudoginsengenin DQ (PDQ), the antitumor activities of RPDQ […]
(§3) and PDQ were both tested.
(§4) The SPC-A-1 and S180 tumor cell lines were purchased from Wuhan Procell Life Science & Technology Co,.Ltd. A549 tumor cell lines were purchased from iCell Bioscience Inc (Shanghai) Biological Co., Ltd.
(§5) 2. Experimental procedure
(§6) S180 cells (1 × 10^5 cells/mL) were seeded into a 96-well plate. After 24 h, pretreated with various concentrations of RPDQ or PDQ (1-200 μM) for 44 h at 37℃, and the cells were treated with MTT for 4 h. The formazan crystal product in the cells were dissolved with acid isopropanol. The absorbance was measured at 570 nm with a […]
(§7) SPC-A-1/A549 cells(1×10^5 cells/mL) were seeded into a 96-well plate. After 24 h, pretreated with various concentrations of RPDQ or PDQ (1-200 μM) for 44 h at 37℃ , and the cells were treated with MTT for 4 h. […] The absorbance was measured at 490 nm with a […]
(§8) Cell viability was calculated by the following formula: Cell viability (%)= 1-{(ODcontrolgroup-ODtreatedgroup)/ODcontrol group×100%}.
(§9) All data were processed by statistical software SPSS 17.0. The data were expressed as Mean ± Standard Deviation. The differences between groups were analyzed by one-way analysis of variance. […]

SPC-A-1 cells = assay: MTT cell viability test, SPC-A-1 cells; assay type: cell-based; settings: 1-200 μM, 44 h
Excerpt: as §1, §2, §3, §4, §5, §6, §7, §8, §9

[1] = assay type: in vitro ADME; settings: rat
Procedure: RPDQ and 20R-panaxadiol stock methanol solutions (1.00 mg/mL) were all prepared with the reference compounds, respectively. Firstly, blank rat plasma was prepared. The blood samples were collected immediately from the abdominal aorta and incubated at 37 °C for 30 min. The plasma was separated by centrifugation at 4000 rpm for 15 min, and was frozen at −20 °C until analysis. By spiking the dilute solutions with blank rat plasma, calibration curves were plotted to produce the points equivalent to 5, 10, 25, 50, 100, 300, 500, and 1000 ng/mL for RPDQ. […] All the QC and calibration standards samples were prepared freshly before analysis. The specificity, linearity, LLOQ, precision and accuracy, extraction recovery, matrix effect, diluted reliability, and stability of the method were validated by following a non-clinical drug pharmacokinetic study technical guideline (China Food And Drug Administration 2014) and the Bioanalytical Method Validation Guideline (Chinese Pharmacopoeia 2015, Vol. 4). Specificity was assessed by comparing blank plasma samples, plasma was spiked with RPDQ and 20R-panaxadiol, and plasma samples were collected after administration. Linearity was analyzed through weighted regression (1/x^2) of peak area ratios (y) of RPDQ to 20R-panaxadiol versus nominal concentration (x) in plasma. […] The intra- and inter-day precision and accuracy were evaluated with the analysis of six replicate QC samples on three consecutive days, respectively. The extraction recovery and matrix effect at three QC concentrations were assayed. By comparing peak areas of RPDQ and 20R-panaxadiol in extracted QC samples with those in post-extracted blank plasma samples, the recoveries were calculated. Moreover, by comparing the peak area of samples spiked after extraction with that of the neat solution’s equivalent concentration, the matrix effect was then evaluated. Stability was evaluated by analyzing replicate QC samples, which were stored at −20 °C for two weeks at room temperature for 4 h, and experienced three freeze/thaw cycles (from −20 °C to room temperature) on consecutive days. The stabilities of RPDQ in stock solutions at 15 °C and stored in plastic autosampler vials for 16 h at 10 °C were also assessed. Five-fold higher concentrations of QC were achieved by adding moderate RPDQ to blank plasma. The samples were then diluted and analyzed with undiluted calibration standards. The accuracy and precision were within acceptable limits (± 15%).

CC(C)(O)[C@@H]1CC[C@@](C)([C@H]2CC[C@]3(C)[C@@H]2[C@H](O[C@@H]2O[C@H](CO)[C@@H](O)[C@H]2O)C[C@@H]2[C@@]4(C)CC[C@H](O)C(C)(C)[C@@H]4CC[C@]23C)O1 [RPDQ, 20S, 24S-12-O-β-D-ribofuranosyl-dammar-20, 24-epoxy-3β, 12β, 25-triol]
anticancer / anti-proliferation effect (S180 cells): good anti-proliferation effects; also recorded: significant anticancer activity
anticancer / anti-proliferation effect (SPC-A-1 cells): good anti-proliferation effects; also recorded: significant anticancer activity
Mean concentration ([1]; 15 ng/mL): 14.96 ± 0.58 ng/mL
Mean concentration ([1]; 200 ng/mL): 188.7 ± 16.57 ng/mL
Mean concentration ([1]; 800 ng/mL): 785.21 ± 19.19 ng/mL
Accuracy ([1]; 3 freeze-thaw cycles, 800 ng/mL): −1.85%
Accuracy ([1]; 3 freeze/thaw cycles, 15 ng/mL): −0.03%
Accuracy ([1]; 3 freeze/thaw cycles, 200 ng/mL): −5.65%
Accuracy ([1]; 4 h, 15 ng/mL): −1.00%
Mean concentration ([1]; 4 h, 15 ng/mL): 14.85 ± 0.72 ng/mL
Accuracy ([1]; 4 h, 200 ng/mL): −5.94%
Mean concentration ([1]; 4 h, 200 ng/mL): 188.12 ± 14.00 ng/mL
Accuracy ([1]; 4 h, 800 ng/mL): −3.25%
Mean concentration ([1]; 4 h, 800 ng/mL): 773.99 ± 26.01 ng/mL
Accuracy ([1]; 16 h, 15 ng/mL): 2.2%
Mean concentration ([1]; 16 h, 15 ng/mL): 15.33 ± 1.61 ng/mL
Accuracy ([1]; 16 h, 200 ng/mL): −6.52%
Mean concentration ([1]; 16 h, 200 ng/mL): 186.96 ± 13.41 ng/mL
Accuracy ([1]; 16 h, 800 ng/mL): 2.03%
Mean concentration ([1]; 16 h, 800 ng/mL): 816.23 ± 15.82 ng/mL
Accuracy ([1]; 14 d, 15 ng/mL): 2.74%
Mean concentration ([1]; 14 d, 15 ng/mL): 15.41 ± 1.47 ng/mL
Accuracy ([1]; 14 d, 200 ng/mL): −10.47%
Mean concentration ([1]; 14 d, 200 ng/mL): 179.07 ± 14.73 ng/mL
Accuracy ([1]; 14 d, 800 ng/mL): −1.71%
Mean concentration ([1]; 14 d, 800 ng/mL): 786.32 ± 19.88 ng/mL
